From article PMC8710044 (Biochemical pharmacology, 2021)

How the values were obtained:
Format in all cases: in vitro ADME
CYP2C9 = CYP2C9 (Homo sapiens, UniProt P11712); test: Relative CYP contribution to hepatic bioactivation and detoxification, CYP2C9; conditions: for Bioactivation Percent: CYP2C9 contribution to total CLbioact of the NSAID; for Detoxification Percent: CYP2C9 contribution to total CLdetox of the NSAID
CYP3A4 = CYP3A4 (Homo sapiens, UniProt P08684); test: Relative CYP contribution to hepatic bioactivation and detoxification, CYP3A4; conditions: for Bioactivation Percent: CYP3A4 contribution to total CLbioact of the NSAID; for Detoxification Percent: CYP3A4 contribution to total CLdetox of the NSAID
CYP2C19 = CYP2C19 (Homo sapiens, UniProt P33261); test: Relative CYP contribution to hepatic bioactivation and detoxification, CYP2C19; conditions: for Bioactivation Percent: CYP2C19 contribution to total CLbioact of the NSAID; for Detoxification Percent: CYP2C19 contribution to total CLdetox of the NSAID
CYP2C8 = biological target: T1, CYP2C8 (Homo sapiens, UniProt P10632); test: Relative CYP contribution to hepatic bioactivation and detoxification, CYP2C8; conditions: for Bioactivation Percent: CYP2C8 contribution to total CLbioact of the NSAID; for Detoxification Percent: CYP2C8 contribution to total CLdetox of the NSAID
T1 sequence (P10632 1-490): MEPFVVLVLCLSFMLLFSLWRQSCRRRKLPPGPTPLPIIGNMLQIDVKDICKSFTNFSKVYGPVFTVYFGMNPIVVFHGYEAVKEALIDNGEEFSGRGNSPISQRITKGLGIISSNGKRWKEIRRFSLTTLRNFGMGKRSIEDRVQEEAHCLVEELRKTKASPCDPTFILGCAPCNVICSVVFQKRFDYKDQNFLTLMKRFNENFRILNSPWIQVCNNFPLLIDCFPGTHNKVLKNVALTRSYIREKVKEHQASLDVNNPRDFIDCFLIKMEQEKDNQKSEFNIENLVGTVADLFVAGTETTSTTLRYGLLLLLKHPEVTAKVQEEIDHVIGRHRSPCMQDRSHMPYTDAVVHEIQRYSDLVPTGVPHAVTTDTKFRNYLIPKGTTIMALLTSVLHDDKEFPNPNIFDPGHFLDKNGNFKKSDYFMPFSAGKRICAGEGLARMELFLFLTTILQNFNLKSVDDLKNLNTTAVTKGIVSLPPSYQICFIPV

Sequence of CYP3A4 (P08684 whole entry): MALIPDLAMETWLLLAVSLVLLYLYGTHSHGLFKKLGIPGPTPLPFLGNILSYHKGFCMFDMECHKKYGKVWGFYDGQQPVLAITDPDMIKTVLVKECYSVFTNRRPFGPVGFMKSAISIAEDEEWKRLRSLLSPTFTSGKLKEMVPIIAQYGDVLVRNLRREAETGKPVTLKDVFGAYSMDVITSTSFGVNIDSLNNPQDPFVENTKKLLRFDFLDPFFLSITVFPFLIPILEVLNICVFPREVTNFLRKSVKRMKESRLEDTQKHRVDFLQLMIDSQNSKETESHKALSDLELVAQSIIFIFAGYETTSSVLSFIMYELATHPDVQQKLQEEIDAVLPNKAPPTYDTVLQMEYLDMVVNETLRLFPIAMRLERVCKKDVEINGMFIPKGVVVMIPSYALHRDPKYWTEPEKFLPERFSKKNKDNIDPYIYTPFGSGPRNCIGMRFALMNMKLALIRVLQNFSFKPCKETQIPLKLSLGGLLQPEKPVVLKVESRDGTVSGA
Sequence of CYP2C9 (P11712 whole entry): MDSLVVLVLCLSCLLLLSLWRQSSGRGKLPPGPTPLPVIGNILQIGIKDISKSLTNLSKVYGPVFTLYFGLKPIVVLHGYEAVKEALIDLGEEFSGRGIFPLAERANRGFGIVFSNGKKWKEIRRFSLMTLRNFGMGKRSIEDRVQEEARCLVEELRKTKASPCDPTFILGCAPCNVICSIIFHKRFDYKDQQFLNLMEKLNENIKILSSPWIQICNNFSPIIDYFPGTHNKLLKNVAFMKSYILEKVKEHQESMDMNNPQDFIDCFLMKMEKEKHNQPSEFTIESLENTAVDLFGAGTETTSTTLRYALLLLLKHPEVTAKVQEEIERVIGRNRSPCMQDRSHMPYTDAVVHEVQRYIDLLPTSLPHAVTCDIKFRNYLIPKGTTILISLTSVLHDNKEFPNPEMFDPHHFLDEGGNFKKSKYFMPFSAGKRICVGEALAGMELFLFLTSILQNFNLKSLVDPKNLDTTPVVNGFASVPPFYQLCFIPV
Sequence of CYP2C19 (P33261 whole entry): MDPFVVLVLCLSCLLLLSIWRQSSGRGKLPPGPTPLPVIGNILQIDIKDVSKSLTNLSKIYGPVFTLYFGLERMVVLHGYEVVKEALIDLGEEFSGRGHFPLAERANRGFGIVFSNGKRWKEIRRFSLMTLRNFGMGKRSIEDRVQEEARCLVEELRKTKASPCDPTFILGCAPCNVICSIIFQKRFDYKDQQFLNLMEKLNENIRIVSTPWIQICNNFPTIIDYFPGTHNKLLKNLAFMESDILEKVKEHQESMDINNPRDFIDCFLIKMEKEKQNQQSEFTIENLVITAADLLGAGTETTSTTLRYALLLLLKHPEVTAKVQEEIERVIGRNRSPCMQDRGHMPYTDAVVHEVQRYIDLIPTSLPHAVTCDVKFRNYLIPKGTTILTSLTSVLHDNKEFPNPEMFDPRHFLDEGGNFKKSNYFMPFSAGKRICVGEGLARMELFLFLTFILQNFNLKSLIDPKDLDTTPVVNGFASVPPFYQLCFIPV

Row | SMILES | Bioactivation Percent (CYP2C9) | Detoxification Percent (CYP2C9) | Bioactivation Percent (CYP3A4) | Detoxification Percent (CYP3A4) | Bioactivation Percent (CYP2C19) | Detoxification Percent (CYP2C19) | Bioactivation Percent (CYP2C8) | Detoxification Percent (CYP2C8)
1 | Cc1ccc(Nc2c(F)cccc2Cl)c(CC(=O)O)c1 [LUM, lumiracoxib] | 95.8% | 23.4% | 3.7% | 68.0% | 0.5% | 8.6% |  | 
2 | Cc1ccc(Cl)c(Nc2ccccc2C(=O)O)c1Cl [MEC, meclofenamic acid] | 55.7% | 36.5% | 24.7% | 61.6% | 19.6% | 1.9% |  | 
3 | O=C(O)c1ccccc1Nc1cccc(C(F)(F)F)c1 [FLU, flufenamic acid] | 42.3% | 27.6% | 55.9% | 69.0% | 1.7% | 3.4% |  | 
4 | Cc1cccc(Nc2ccccc2C(=O)O)c1C [MEF, mefenamic acid] | 91.4% | 36.9% | 6.0% | 56.4% | 1.2% | 2.1% | 1.4% | 4.6%
5 | O=C(O)COC(=O)Cc1ccccc1Nc1c(Cl)cccc1Cl [ACE, aceclofenac] | 94.3% | 30.7% | 1.2% | 60.4% | 2.0% | 1.6% | 2.5% | 7.3%
6 | Cc1c(Cl)cccc1Nc1ccccc1C(=O)O [TOL, tolfenamic acid] | 72.8% | 35.5% | 25.2% | 60.9% | 2.0% | 3.6% |  | 
